Reference: the supplement of paper PMC12463676, “Small-molecule dissolution of stress granules by redox modulation benefits ALS models” (Nature Chemical Biology, 2025)

Legend:
potassium arsenate = compound: O=[As]([O-])(O)O.[K+] [potassium arsenate]; test: thermal stability z-score vs DMSO; higher = more thermally stabilized by treatment; conditions: HeLa; arsenate concentration 1 mM
Method: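 Cellular thermal proteome profiling in HeLa cells treated with 1 mM arsenate for 1 h (DMSO pretreatment), heated to ten temperatures (37-66.3 °C). Soluble protein was quantified by TMT mass spectrometry relative to DMSO controls; the thermal stability score was transformed to a z-score; mean of n = 3 experiments.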

lipoamide = compound: NC(=O)CCCCC1CCSS1 [lipoamide]; test: as above; conditions: HeLa, lipoamide concentration 100 µM
Method: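 Cellular thermal proteome profiling in HeLa cells. Cells were treated with 100 µM lipoamide for 1 h, with or without 1 mM arsenate for a further 1 h, then heated to ten temperatures (37-66.3 °C), and soluble protein was quantified by TMT mass spectrometry relative to 0.1% DMSO controls. The thermal stability score (sum of log2 fold changes minus the abundance score) was transformed to a z-score; mean of n = 3 experiments.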

[1] = arsenate co-treatment: 1 mM arsenate 1 h
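Also: each temperature applied for 3 min, abundance score taken as mean log2 fold change at the two lowest temperatures, z-score obtained by mean subtraction and division by SD.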

UniProt Q9BU02, sequence (Q9BU02 whole entry): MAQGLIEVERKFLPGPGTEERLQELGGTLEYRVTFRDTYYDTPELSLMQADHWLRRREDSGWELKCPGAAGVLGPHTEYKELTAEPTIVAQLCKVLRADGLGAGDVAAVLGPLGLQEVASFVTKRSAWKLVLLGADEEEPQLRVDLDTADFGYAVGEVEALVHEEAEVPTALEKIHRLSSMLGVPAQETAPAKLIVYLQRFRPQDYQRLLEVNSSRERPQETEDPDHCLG
UniProt Q8N1G2, sequence (Q8N1G2 whole entry): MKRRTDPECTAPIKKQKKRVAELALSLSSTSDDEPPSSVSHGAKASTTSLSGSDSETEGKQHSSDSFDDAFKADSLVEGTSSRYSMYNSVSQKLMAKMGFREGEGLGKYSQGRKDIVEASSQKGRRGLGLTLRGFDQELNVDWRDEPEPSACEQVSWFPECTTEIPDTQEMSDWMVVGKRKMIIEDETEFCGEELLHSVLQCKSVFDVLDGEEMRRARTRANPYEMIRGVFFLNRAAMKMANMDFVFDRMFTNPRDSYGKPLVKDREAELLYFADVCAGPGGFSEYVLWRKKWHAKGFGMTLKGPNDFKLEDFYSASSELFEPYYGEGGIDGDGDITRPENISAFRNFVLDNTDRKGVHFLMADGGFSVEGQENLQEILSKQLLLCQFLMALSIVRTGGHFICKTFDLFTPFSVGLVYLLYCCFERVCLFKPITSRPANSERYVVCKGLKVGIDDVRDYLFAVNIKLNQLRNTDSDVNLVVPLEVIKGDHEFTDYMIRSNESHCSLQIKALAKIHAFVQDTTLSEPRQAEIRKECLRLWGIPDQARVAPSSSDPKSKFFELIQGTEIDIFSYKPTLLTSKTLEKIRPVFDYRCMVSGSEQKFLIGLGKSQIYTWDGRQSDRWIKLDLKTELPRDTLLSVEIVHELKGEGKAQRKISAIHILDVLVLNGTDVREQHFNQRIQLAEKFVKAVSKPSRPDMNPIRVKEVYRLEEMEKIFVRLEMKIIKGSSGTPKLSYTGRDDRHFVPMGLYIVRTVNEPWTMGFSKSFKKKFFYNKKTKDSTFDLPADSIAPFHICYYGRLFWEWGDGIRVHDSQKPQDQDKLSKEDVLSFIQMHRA
UniProt Q92667, sequence (Q92667 whole entry): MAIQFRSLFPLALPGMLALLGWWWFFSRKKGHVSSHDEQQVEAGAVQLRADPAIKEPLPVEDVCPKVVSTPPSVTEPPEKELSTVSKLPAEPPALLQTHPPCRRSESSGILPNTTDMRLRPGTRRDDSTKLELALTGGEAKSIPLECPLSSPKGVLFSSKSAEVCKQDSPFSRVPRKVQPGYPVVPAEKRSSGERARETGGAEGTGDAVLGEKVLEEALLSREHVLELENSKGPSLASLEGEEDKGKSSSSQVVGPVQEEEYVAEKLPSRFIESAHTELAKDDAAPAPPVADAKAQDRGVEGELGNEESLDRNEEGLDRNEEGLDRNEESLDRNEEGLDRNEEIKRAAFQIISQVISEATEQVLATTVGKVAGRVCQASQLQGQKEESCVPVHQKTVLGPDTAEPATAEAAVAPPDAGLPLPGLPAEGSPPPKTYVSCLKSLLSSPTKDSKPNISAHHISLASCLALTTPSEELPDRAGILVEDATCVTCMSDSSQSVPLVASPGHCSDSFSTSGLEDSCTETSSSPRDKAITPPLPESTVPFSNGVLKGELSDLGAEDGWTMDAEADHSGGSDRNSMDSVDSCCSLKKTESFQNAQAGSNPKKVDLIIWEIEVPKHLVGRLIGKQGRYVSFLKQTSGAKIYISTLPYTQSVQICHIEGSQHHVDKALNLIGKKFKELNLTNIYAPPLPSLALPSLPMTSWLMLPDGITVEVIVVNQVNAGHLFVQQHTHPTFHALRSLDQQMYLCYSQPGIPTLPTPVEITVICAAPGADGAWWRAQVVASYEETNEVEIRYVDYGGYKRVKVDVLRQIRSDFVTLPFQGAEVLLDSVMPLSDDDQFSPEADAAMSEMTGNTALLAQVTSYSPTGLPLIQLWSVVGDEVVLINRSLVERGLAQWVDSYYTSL
UniProt Q9BRF8, sequence (Q9BRF8 whole entry): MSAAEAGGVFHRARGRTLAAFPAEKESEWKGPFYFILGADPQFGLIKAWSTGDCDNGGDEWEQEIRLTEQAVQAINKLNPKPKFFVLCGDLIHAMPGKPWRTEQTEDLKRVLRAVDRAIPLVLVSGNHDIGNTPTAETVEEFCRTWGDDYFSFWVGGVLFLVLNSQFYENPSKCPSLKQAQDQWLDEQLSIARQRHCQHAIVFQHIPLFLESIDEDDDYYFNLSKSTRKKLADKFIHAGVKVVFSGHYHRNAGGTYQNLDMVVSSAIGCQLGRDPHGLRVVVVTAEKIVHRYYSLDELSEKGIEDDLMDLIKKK
UniProt Q8TCJ2, sequence (Q8TCJ2 whole entry): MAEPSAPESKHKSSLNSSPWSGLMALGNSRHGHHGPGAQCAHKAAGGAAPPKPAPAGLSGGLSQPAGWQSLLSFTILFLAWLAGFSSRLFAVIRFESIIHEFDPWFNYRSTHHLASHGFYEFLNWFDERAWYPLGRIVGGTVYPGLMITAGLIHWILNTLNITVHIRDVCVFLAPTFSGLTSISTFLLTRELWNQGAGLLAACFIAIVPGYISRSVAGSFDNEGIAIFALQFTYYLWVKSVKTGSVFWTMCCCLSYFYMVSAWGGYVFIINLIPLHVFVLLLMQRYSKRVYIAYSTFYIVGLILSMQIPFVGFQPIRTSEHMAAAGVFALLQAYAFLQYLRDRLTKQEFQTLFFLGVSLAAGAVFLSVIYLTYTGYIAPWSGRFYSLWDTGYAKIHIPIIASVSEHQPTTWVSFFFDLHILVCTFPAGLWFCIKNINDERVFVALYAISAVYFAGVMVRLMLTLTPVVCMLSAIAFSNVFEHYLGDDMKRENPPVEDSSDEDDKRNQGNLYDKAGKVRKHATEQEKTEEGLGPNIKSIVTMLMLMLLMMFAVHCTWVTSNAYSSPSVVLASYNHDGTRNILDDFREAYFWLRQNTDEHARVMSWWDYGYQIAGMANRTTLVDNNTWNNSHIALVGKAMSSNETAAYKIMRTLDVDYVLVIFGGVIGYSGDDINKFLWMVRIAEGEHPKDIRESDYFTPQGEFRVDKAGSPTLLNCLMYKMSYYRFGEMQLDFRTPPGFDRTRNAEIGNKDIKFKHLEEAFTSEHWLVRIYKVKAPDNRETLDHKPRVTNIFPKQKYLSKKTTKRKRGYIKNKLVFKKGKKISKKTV
UniProt Q8NBI6, sequence (Q8NBI6 whole entry): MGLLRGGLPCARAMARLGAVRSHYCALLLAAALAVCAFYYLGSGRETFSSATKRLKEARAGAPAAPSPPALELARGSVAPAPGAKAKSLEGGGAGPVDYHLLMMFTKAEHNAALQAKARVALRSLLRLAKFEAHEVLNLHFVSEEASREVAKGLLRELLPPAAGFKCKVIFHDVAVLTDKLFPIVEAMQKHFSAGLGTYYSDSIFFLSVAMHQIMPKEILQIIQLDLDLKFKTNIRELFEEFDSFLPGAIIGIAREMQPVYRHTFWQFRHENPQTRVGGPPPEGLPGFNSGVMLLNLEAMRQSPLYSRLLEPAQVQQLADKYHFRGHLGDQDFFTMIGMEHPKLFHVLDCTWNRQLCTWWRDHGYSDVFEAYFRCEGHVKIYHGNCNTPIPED
UniProt O14757, sequence (O14757 whole entry): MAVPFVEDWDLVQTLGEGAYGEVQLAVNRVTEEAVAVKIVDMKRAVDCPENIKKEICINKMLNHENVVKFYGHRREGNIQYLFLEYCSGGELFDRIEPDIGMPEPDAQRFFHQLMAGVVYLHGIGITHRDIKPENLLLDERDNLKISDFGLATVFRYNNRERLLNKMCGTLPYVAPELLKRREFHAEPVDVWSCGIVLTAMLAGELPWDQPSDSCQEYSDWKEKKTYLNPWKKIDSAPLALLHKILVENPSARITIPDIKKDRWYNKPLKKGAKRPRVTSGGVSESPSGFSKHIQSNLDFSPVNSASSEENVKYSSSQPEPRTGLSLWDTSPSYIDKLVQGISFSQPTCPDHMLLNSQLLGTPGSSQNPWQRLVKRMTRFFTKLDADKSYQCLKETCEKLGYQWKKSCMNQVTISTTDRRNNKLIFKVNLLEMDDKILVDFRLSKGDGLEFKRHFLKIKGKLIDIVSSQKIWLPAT
UniProt Q53GQ0, sequence (Q53GQ0 whole entry): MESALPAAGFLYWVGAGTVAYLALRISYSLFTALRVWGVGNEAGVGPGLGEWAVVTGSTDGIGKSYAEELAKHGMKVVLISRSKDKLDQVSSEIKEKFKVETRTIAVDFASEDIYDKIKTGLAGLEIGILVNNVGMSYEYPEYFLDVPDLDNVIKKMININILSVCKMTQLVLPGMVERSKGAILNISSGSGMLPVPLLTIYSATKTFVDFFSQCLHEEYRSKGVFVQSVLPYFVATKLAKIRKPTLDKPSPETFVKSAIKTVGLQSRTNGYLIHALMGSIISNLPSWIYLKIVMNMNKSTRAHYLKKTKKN
UniProt P28482, sequence (P28482 whole entry): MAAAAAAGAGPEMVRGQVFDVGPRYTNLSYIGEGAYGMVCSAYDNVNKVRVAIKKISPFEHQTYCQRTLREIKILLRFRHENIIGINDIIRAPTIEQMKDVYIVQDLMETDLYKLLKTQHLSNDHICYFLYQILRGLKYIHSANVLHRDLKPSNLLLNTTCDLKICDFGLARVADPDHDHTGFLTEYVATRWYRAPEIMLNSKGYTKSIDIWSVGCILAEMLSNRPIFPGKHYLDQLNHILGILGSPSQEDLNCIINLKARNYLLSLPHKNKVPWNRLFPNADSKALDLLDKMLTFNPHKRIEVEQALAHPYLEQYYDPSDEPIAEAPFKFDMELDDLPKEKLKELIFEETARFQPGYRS
UniProt Q9GZU8, sequence (Q9GZU8 whole entry): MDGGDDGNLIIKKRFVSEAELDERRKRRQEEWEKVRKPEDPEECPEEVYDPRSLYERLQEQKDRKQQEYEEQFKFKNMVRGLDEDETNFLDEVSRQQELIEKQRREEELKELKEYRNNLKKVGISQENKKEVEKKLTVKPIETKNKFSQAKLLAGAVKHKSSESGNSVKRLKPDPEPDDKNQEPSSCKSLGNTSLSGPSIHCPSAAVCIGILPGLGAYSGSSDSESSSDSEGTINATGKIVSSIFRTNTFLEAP

Target	thermal stability z-score (potassium arsenate)	thermal stability z-score (lipoamide; [1])	thermal stability z-score (lipoamide; arsenate co-treatment: none)
MLLT1 (UniProt Q03111)	-0.0158	-0.182	-0.111
C1S (UniProt P09871)	0.0687	0.0855	-0.147
TVP23C|TVP23B	0.27	0.653	1.19
MAPK1 (UniProt P28482)	-0.175	0.246	-0.0239
MT (UniProt Q8IVS2)	-0.404	-0.281	-0.555
FAM91A1 (UniProt Q658Y4)	-0.0432	-0.0432	-0.00182
ACBD3 (UniProt Q9H3P7)	0.21	0.447	0.826
FASTKD1 (UniProt Q53R41)	-0.324	-0.195	-0.378
TNFRSF1A (UniProt P19438)	0.164	-0.0438	-0.00708
HSD17B12 (UniProt Q53GQ0)	0.614	0.28	0.0767
TARDBP (UniProt Q13148)	-0.755	0.125	0.504
FAM192A (UniProt Q9GZU8)	-0.58	-0.00729	0.455
TMUB2 (UniProt Q71RG4)	2.27	1.9	1.78
GEMIN6 (UniProt Q8WXD5)	-0.129	0.0364	-0.18
CCZ1B|CCZ1	0.404	0.296	0.0817
ABR (UniProt Q12979)	-0.555	-0.754	-0.915
CCDC97 (UniProt Q96F63)	-0.925	-0.00687	0.225
XXYLT1 (UniProt Q8NBI6)	0.948	-0.751	-2.13
UGGT2 (UniProt Q9NYU1)	0.289	-1.81	-1.31
SUB1 (UniProt P53999)	0.0838	0.206	0.0783
CAP2 (UniProt P40123)	0.329	0.00549	-0.126
BACH1 (UniProt O14867)	0.169	-0.551	-0.333
FAM60A (UniProt Q9NP50)	-0.681	0.0806	0.262
TECR (UniProt Q9NZ01)	-0.077	-1.46	-0.891

Target	thermal stability z-score (potassium arsenate)	thermal stability z-score (lipoamide; [1])	thermal stability z-score (lipoamide; arsenate co-treatment: none)
UTP4 (UniProt Q969X6)	0.0306	0.167	0.0645
DMD (UniProt P11532)	-0.176	0.0264	-0.124
NDUFAF7 (UniProt Q7L592)	0.288	-0.486	-0.171
RPL26L1 (UniProt Q9UNX3)	0.434	0.252	0.884
LAMB2 (UniProt P55268)	-0.248	-1.69	-1.75
AKAP1 (UniProt Q92667)	0.73	0.866	0.652
ERAL1 (UniProt O75616)	-0.45	-0.329	-0.113
PKN3 (UniProt Q6P5Z2)	0.231	-0.237	0.334
ABHD17C (UniProt Q6PCB6)	-0.29	-0.923	-0.152
PCSK9 (UniProt Q8NBP7)	0.0738	-0.578	-0.462
ATP5A1 (UniProt P25705)	-0.382	-0.144	-0.0322
NUDCD3 (UniProt Q8IVD9)	0.339	-0.592	-0.183
MRPS5 (UniProt P82675)	0.0198	-0.158	0.0282
CHEK1 (UniProt O14757)	-0.526	0.0611	-0.137
NFXL1 (UniProt Q6ZNB6)	-0.813	-0.724	-0.558
HAX1 (UniProt O00165)	-0.11	-1	-0.895
SLC25A32 (UniProt Q9H2D1)	-0.601	-0.958	-1.17
CPPED1 (UniProt Q9BRF8)	0.792	-0.0195	0.348
CD58 (UniProt P19256)	0.484	0.0858	0.705
GOLM1 (UniProt Q8NBJ4)	-0.568	0.000985	-0.136
UBE2Z (UniProt Q9H832)	-0.55	-0.25	-0.264
TBL1X (UniProt O60907)	0.341	0.835	-0.0254
IFIT2 (UniProt P09913)	-0.392	-0.00168	-0.0988
GTF2A1 (UniProt P52655)	1.02	1.26	1.56

Target	thermal stability z-score (potassium arsenate)	thermal stability z-score (lipoamide; [1])	thermal stability z-score (lipoamide; arsenate co-treatment: none)
BORCS5|LOH12CR1	0.518	1.36	1.29
PRPF4 (UniProt O43172)	0.565	1.82	1.6
MTRF1L (UniProt Q9UGC7)	0.646	-1.57	-0.343
GOT2 (UniProt P00505)	-0.0952	0.218	0.18
STT3B (UniProt Q8TCJ2)	0.646	-3.41	-2.66
VDAC1 (UniProt P21796)	0.905	0.311	0.385
HELLS (UniProt Q9NRZ9)	-0.282	-0.0381	-0.0408
CMTR1 (UniProt Q8N1G2)	1.15	-0.292	0.406
KLC2 (UniProt Q9H0B6)	0.557	-0.0443	0.117
TRAPPC11 (UniProt Q7Z392)	-0.537	-0.549	-1.8
PDE12 (UniProt Q6L8Q7)	-0.746	0.274	0.272
WDR74 (UniProt Q6RFH5)	-0.205	-1.21	-0.713
RABEP1 (UniProt Q15276)	0.182	-0.36	-0.194
DSTN (UniProt P60981)	-1.22	0.471	0.0123
FOXK2 (UniProt Q01167)	0.133	0.0506	-0.306
ARV1 (UniProt Q9H2C2)	-0.894	0.292	0.473
ERC1 (UniProt Q8IUD2)	0.574	-0.3	-0.166
GRWD1 (UniProt Q9BQ67)	-0.541	0.304	0.0318
NUP188 (UniProt Q5SRE5)	0.426	-0.451	-0.512
IARS2 (UniProt Q9NSE4)	-0.455	-0.232	0.259
RNF4 (UniProt P78317)	-0.192	-1.23	-0.848
FKBP4 (UniProt Q02790)	0.191	0.198	0.244
TFAP4 (UniProt Q01664)	1.02	0.339	0.809
THTPA (UniProt Q9BU02)	0.53	0.32	-0.0368
